# Test results taken from patent US20230348376A1 (TEIJIN PHARMA LIMITED, priority 2020, published 2023).
# System: rat oligodendrocyte progenitor cells
# Test: Promotive activity of rat oligodendrocyte progenitor cell differentiation-2 (immunostaining of MBP)
# Format: cell-based
# Conditions: Test 3; vitamin D derivative 2 μM, T3 30 nM; 4 days
# Experimental: The promotive activity of oligodendrocyte progenitor cell (OPC) differentiation of the vitamin D derivatives was evaluated by immunostaining of MBP.
# Subsequently, oligodendrocyte progenitor cell separation medium was added to the flask, and the mixture was similarly shaken for about 22 hours (37° C., 200 rpm), and the supernatant was collected to prepare oligodendrocyte progenitor cells.
row,Structure (SMILES),Mean (number of MBP-positive cells/number of Hoechst33342-positive cells)
1,"C=C1/C(=C\C=C2/CCC[C@]3(C)[C@@H]([C@H](C)CN4CCOC[C@@H]4C)CC[C@@H]23)C[C@@H](O)C[C@@H]1O [Compound F004, (1R,3S,Z)-5-(2-((1R,3aS,7aR,E)-7a-methyl-1-((S)-1-((S)-3-methylmorpholino)propan-2-yl)octahydro-4H-inden-4-ylidene)ethylidene)-4-methylenecyclohexane-1,3-diol]",0.37
2,"C=C1/C(=C\C=C2/CCC[C@]3(C)[C@@H]([C@H](C)CN4CCOC[C@H]4C)CC[C@@H]23)C[C@@H](O)C[C@@H]1O [Compound F005, (1R,3S,Z)-5-(2-((1R,3aS,7aR,E)-7a-methyl-1-((S)-1-((R)-3-methylmorpholino)propan-2-yl)octahydro-4H-inden-4-ylidene)ethylidene)-4-methylenecyclohexane-1,3-diol]",0.40
3,"C[C@H](CN1CCCC[C@@H]1C)[C@H]1CC[C@H]2/C(=C/C=C3C[C@@H](O)C[C@H](O)C3)CCC[C@]12C [Compound G001, (1R,3R)-5-(2-((1R,3aS,7aR,E)-7a-methyl-1-((S)-1-((S)-2-methylpiperidin-1-yl)propan-2-yl)octahydro-4H-inden-4-ylidene)ethylidene)cyclohexane-1,3-diol]",0.34

# Same assay, conditions: Test 6; vitamin D derivative 2 μM, T3 30 nM; 4 days
row,Structure (SMILES),Mean (number of MBP-positive cells/number of Hoechst33342-positive cells)
1,"COC(C)(C)[C@H]1CCCN1C[C@@H](C)[C@H]1CC[C@H]2/C(=C/C=C3C[C@@H](O)C[C@H](O)C3)CCC[C@]12C [Compound G015, (1R,3R)-5-(2-((1R,3aS,7aR,E)-1-((S)-1-((R)-2-(2-methoxypropan-2-yl)pyrrolidin-1-yl)propan-2-yl)-7a-methyloctahydro-4H-inden-4-ylidene)ethylidene)cyclohexane-1,3-diol]",0.52
2,"C[C@H](CN1CCC[C@H]1C(C)(C)O)[C@H]1CC[C@H]2/C(=C/C=C3C[C@@H](O)C[C@H](O)C3)CCC[C@]12C [Compound G014, (1R,3R)-5-(2-((1R,3aS,7aR,E)-1-((S)-1-((S)-2-(2-hydroxypropan-2-yl)pyrrolidin-1-yl)propan-2-yl)-7a-methyloctahydro-4H-inden-4-ylidene)ethylidene)cyclohexane-1,3-diol]",0.44

# Same assay, conditions: Test 7; vitamin D derivative 2 μM, T3 30 nM; 4 days
row,Structure (SMILES),Mean (number of MBP-positive cells/number of Hoechst33342-positive cells)
1,"C=C1/C(=C\C=C2/CCC[C@]3(C)[C@@H]([C@H](C)CN4CCCC[C@@H]4C)CC[C@@H]23)C[C@@H](O)C[C@@H]1O [Compound F001, (1R,3S,Z)-5-(2-((1R,3aS,7aR,E)-7a-methyl-1-((S)-1-((S)-2-methylpiperidin-1-yl)propan-2-yl)octahydro-4H-inden-4-ylidene)ethylidene)-4-methylenecyclohexane-1,3-diol]",0.29
2,"C=C1/C(=C\C=C2/CCC[C@]3(C)[C@@H]([C@H](C)CN4CCCC[C@H]4C)CC[C@@H]23)C[C@@H](O)C[C@@H]1O [Compound F002, (1R,3S,Z)-5-(2-((1R,3aS,7aR,E)-7a-methyl-1-((S)-1-((R)-2-methylpiperidin-1-yl)propan-2-yl)octahydro-4H-inden-4-ylidene)ethylidene)-4-methylenecyclohexane-1,3-diol]",0.31
3,"C=C1/C(=C\C=C2/CCC[C@]3(C)[C@@H]([C@H](C)CN4CCCCC4(C)C)CC[C@@H]23)C[C@@H](O)C[C@@H]1O [Compound F003, (1R,3S,Z)-5-(2-((1R,3aS,7aR,E)-1-((S)-1-(2,2-dimethylpiperidin-1-yl)propan-2-yl)-7a-methyloctahydro-4H-inden-4-ylidene)ethylidene)-4-methylenecyclohexane-1,3-diol]",0.32
4,"COC(C)(C)[C@@H]1CCCN1C[C@@H](C)[C@H]1CC[C@H]2/C(=C/C=C3C[C@@H](O)C[C@H](O)C3)CCC[C@]12C [Compound G016, (1R,3R)-5-(2-((1R,3aS,7aR,E)-1-((S)-1-((S)-2-(2-methoxypropan-2-yl)pyrrolidin-1-yl)propan-2-yl)-7a-methyloctahydro-4H-inden-4-ylidene)ethylidene)cyclohexane-1,3-diol]",0.37
5,"C=C1[C@H](O)CC(=C/C=C2\CCC[C@]3(C)[C@@H]([C@H](C)CN4CCN(C)C[C@H]4C)CC[C@@H]23)C[C@H]1O [Compound H012, (1R,3R)-5-(2-((1R,3aS,7aR,E)-1-((S)-1-((R)-2,4-dimethylpiperazin-1-yl)propan-2-yl)-7a-methyloctahydro-4H-inden-4-ylidene)ethylidene)-2-methylenecyclohexane-1,3-diol]",0.28

# Same assay, conditions: Test 8; vitamin D derivative 2 μM, T3 30 nM; 4 days
row,Structure (SMILES),Mean (number of MBP-positive cells/number of Hoechst33342-positive cells)
1,"C=C1[C@H](O)CC(=C/C=C2\CCC[C@]3(C)[C@@H]([C@H](C)CN4CCC[C@@H]4C(C)(C)OC)CC[C@@H]23)C[C@H]1O [Compound H015, (1R,3R)-5-(2-((1R,3aS,7aR,E)-1-((S)-1-((R)-2-(2-methoxypropan-2-yl)pyrrolidin-1-yl)propan-2-yl)-7a-methyloctahydro-4H-inden-4-ylidene)ethylidene)-2-methylenecyclohexane-1,3-diol]",0.34
2,"C=C1[C@H](O)CC(=C/C=C2\CCC[C@]3(C)[C@@H]([C@H](C)CN4CCC[C@@H]4C(C)(C)O)CC[C@@H]23)C[C@H]1O [Compound H013, (1R,3R)-5-(2-((1R,3aS,7aR,E)-1-((S)-1-((R)-2-(2-hydroxypropan-2-yl)pyrrolidin-1-yl)propan-2-yl)-7a-methyloctahydro-4H-inden-4-ylidene)ethylidene)-2-methylenecyclohexane-1,3-diol]",0.35

# Same assay, conditions: Test 9; vitamin D derivative 2 μM, T3 30 nM; 4 days
row,Structure (SMILES),Mean (number of MBP-positive cells/number of Hoechst33342-positive cells)
1,"C=C1[C@H](O)CC(=C/C=C2\CCC[C@]3(C)[C@@H]([C@H](C)CN4CCCCC4(C)C)CC[C@@H]23)C[C@H]1O [Compound H003, (1R,3R)-5-(2-((1R,3aS,7aR,E)-1-((S)-1-(2,2-dimethylpiperidin-1-yl)propan-2-yl)-7a-methyloctahydro-4H-inden-4-ylidene)ethylidene)-2-methylenecyclohexane-1,3-diol]",0.30
2,"C=C1/C(=C\C=C2/CCC[C@]3(C)[C@@H]([C@H](C)CN4CCCC[C@@H]4C)CC[C@@H]23)C[C@@H](O)C[C@H]1O [Compound I001, (1R,3R,Z)-5-(2-((1R,3aS,7aR,E)-7a-methyl-1-((S)-1-((S)-2-methylpiperidin-1-yl)propan-2-yl)octahydro-4H-inden-4-ylidene)ethylidene)-4-methylenecyclohexane-1,3-diol]",0.30
3,"C=C1/C(=C\C=C2/CCC[C@]3(C)[C@@H]([C@H](C)CN4CCCCC4(C)C)CC[C@@H]23)C[C@@H](O)C[C@H]1O [Compound I003, (1R,3R,Z)-5-(2-((1R,3aS,7aR,E)-1-((S)-1-(2,2-dimethylpiperidin-1-yl)propan-2-yl)-7a-methyloctahydro-4H-inden-4-ylidene)ethylidene)-4-methylenecyclohexane-1,3-diol]",0.33
4,"C=C1/C(=C\C=C2/CCC[C@]3(C)[C@@H]([C@H](C)CN4CCCC[C@H]4C)CC[C@@H]23)C[C@@H](O)C[C@H]1O [Compound I002, (1R,3R,Z)-5-(2-((1R,3aS,7aR,E)-7a-methyl-1-((S)-1-((R)-2-methylpiperidin-1-yl)propan-2-yl)octahydro-4H-inden-4-ylidene)ethylidene)-4-methylenecyclohexane-1,3-diol]",0.31
